The record followed here is US5889048A, “Methods and compositions for treating defective cell functions” (priority 1994, dated 1999).

The subject of this test is L-41 cell line. In words: cytostatic activity on reinoculated tumor culture of L-41 cell line (protein content, % cell growth inhibition). The test is classed as cell-based. As to the method: The […] activity of a pharmaceutical formulation of the invention was tested with using reinoculated tumor cell cultures.
In the studies a reinoculated leukocyte culture of L-41 strain was used.
The cell culture was incubated by the conventional method. The inoculate density was 1-10^5 cells in 1 ml of nutrient medium. […] On day 2 from the start of the study, a biological activity of the proposed formulation was estimated using 4-point scale. The assays for protein in cultures were performed by the Louri method modified by the Oyama and Eagle.
The cytostatic activity of the proposed formulation was evaluated as the % inhibition of cell culture growth by the suppression of protein production.
According to the existing standard techniques for screening the antitumor preparations, a pharmaceutical formulation is recognized to be efficient when its ED50 is less or equal to 100 μg/ml.
Comparison of biologic activity of the proposed pharmaceutical
reinoculated tumor culture of L-41 cell line

[1] abbreviates: mercury dichloride alone 1.0 μg/ml.
Where [2] appears, read: mercury dichloride alone 3.3 μg/ml.
Setting [3] is: mercury dichloride alone 5.0 μg/ml.
Where [4] appears, read: mercury dichloride alone 8.0 μg/ml.

Turning to `[Cl][Hg][Cl]` [Mercury dichloride, mercury dichloride], where the note is “L-41 culture, Table 1 data”, the ED50 result is reported as “about 8 μg/ml”. Further, the “% of cell growth inhibition” value turned out to be 1.2% under setting [1], 5.1% under setting [2], 12.9% under setting [3] and 47.6% under setting [4]. Moreover, the Protein content stood at 390.3 ± 2.6 µg/mL under setting [1], 279.0 ± 27.3 µg/mL under setting [2], 256.0 ± 5.2 µg/mL under setting [3] and 154.0 ± 5.0 µg/mL under setting [4]. Moreover, the “ED50 (preliminary experiment)” value (preliminary experiment) is < 10 µg/mL.
